In the supplement of paper PMC10627819:

Key:
[1] = tested on: S. aureus DSM 20231; assay: fitness (endpoint OD595 vs no drug) (fraction); higher = more growth
Method in brief: (§1)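 Bacterial fitness was scored as optical density at the stationary-phase transition relative to the robust mean of no-drug control wells. Scores are capped at 1. The growth data were OD595 readings every 30 min for 14 h at 37 °C, background-subtracted against the first reading, from 384-well plates inoculated at OD595 0.01 in TSB, LB Lennox or CY.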

[2] = tested on: S. aureus Newman; assay: as above
Method in brief: as §1

[3] = tested on: S. pneumoniae D39V; assay: as above
Method in brief: as §1

[4] = tested on: B. subtilis 168; assay: Bliss interaction score (quartile over a dose matrix) (fitness difference); higher = more antagonism (negative = synergy)
Method in brief: (§2)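 The Bliss score is observed minus expected fitness, where expected fitness is the product of the single-drug fitness values inferred from the combination data. Fitness is the OD595 at the onset of stationary phase over the plate's robust no-drug mean, capped at 1. Scores are summarised by quartiles over technical, biological and donor/recipient replicates.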

[5] = tested on: S. aureus DSM 20231; assay: as above
Method in brief: as §2

[6] = tested on: S. aureus Newman; assay: as above
Method in brief: as §2

[7] = tested on: S. pneumoniae D39V; assay: as above
Method in brief: as §2
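Wherever Bliss interaction score (quartile over a dose matrix) is given: first quartile when negative (synergy) and third quartile when positive (antagonism).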
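Wherever fitness (endpoint OD595 vs no drug) is given: OD595 on entry to stationary phase over no-drug wells; at most 1.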

CC1(C)S[C@@H]2[C@H](NC(=O)[C@H](N)c3ccc(O)cc3)C(=O)N2[C@H]1C(=O)O [Amoxicillin] + CO/N=C(\C(=O)N[C@@H]1C(=O)N2C(C(=O)O)=C(COC(C)=O)CS[C@H]12)c1csc(N)n1 [Cefotaxime]
fitness
Conditions | first compound 0.0008 µg/mL | first compound 0.0015 µg/mL | first compound 0.003 µg/mL | first compound 0.0625 µg/mL | first compound 0.125 µg/mL | first compound 0.25 µg/mL
[1], partner 0.039 µg/mL | – | – | – | 0.465 | 0.283 | 0.128
[1], partner 0.078 µg/mL | – | – | – | 0.47 | 0.403 | 0.103
[1], partner 0.156 µg/mL | – | – | – | 0.464 | 0.221 | 0.0332
[1], partner 0.312 µg/mL | – | – | – | 0.456 | 0.0746 | 0.0409
[2], partner 0.078 µg/mL | – | – | – | 0.728 | 0.711 | 0.626
[2], partner 0.156 µg/mL | – | – | – | 0.575 | 0.551 | 0.51
[2], partner 0.312 µg/mL | – | – | – | 0.327 | 0.156 | 0.159
[2], partner 0.625 µg/mL | – | – | – | 0.191 | 0.0751 | 0.13
[2], partner 1.25 µg/mL | – | – | – | 0.0345 | 0.0453 | 0.0376
[2], partner 2.5 µg/mL | – | – | – | 0.0349 | 0.0311 | 0.0239
[3], partner 0.0018 µg/mL | 0.993 | 0.998 | 0.977 | – | – | –
[3], partner 0.0035 µg/mL | 0.986 | 0.967 | 0.889 | – | – | –
[3], partner 0.007 µg/mL | 0.882 | 0.882 | 0.762 | – | – | –

one replicate
Conditions | fitness
[1], first compound 0.5 µg/mL, partner 0.039 µg/mL | 0.0334
[1], first compound 0.5 µg/mL, partner 0.078 µg/mL | 0.0321
[1], first compound 0.5 µg/mL, partner 0.156 µg/mL | 0.0325
[1], first compound 0.5 µg/mL, partner 0.312 µg/mL | 0.0506
[2], first compound 0.0625 µg/mL, partner 0.039 µg/mL | 0.709
[2], first compound 0.125 µg/mL, partner 0.039 µg/mL | 0.736
[2], first compound 0.25 µg/mL, partner 0.039 µg/mL | 0.749
[3], first compound 0.006 µg/mL, partner 0.0018 µg/mL | 0.457
[3], first compound 0.006 µg/mL, partner 0.0035 µg/mL | 0.344
[3], first compound 0.006 µg/mL, partner 0.007 µg/mL | 0.176

Conditions | Bliss interaction score
[4] | 0.0789
[5] | -0.14
[6] | -0.0401
[7] | -0.0441

CC1(C)S[C@@H]2[C@H](NC(=O)[C@H](N)c3ccc(O)cc3)C(=O)N2[C@H]1C(=O)O [Amoxicillin] + CO/N=C(\C(=O)N[C@@H]1C(=O)N2C(C(=O)[O-])=C(C[N+]3(C)CCCC3)CS[C@H]12)c1csc(N)n1 [Cefepime]
Conditions | fitness
[1], first compound 0.0625 µg/mL, partner 0.125 µg/mL | 0.566
[1], first compound 0.0625 µg/mL, partner 0.25 µg/mL | 0.553
[1], first compound 0.0625 µg/mL, partner 0.5 µg/mL | 0.499
[1], first compound 0.125 µg/mL, partner 0.125 µg/mL | 0.393
[1], first compound 0.125 µg/mL, partner 0.25 µg/mL | 0.477
[1], first compound 0.25 µg/mL, partner 0.125 µg/mL | 0.307
[1], first compound 0.25 µg/mL, partner 0.25 µg/mL | 0.195
[1], first compound 0.25 µg/mL, partner 0.5 µg/mL | 0.0559
[1], first compound 0.5 µg/mL, partner 0.125 µg/mL | 0
[1], first compound 0.5 µg/mL, partner 0.25 µg/mL | 0.0413
[1], first compound 0.5 µg/mL, partner 0.5 µg/mL | 0.0026
[2], first compound 0.0625 µg/mL, partner 0.125 µg/mL | 0.829
[2], first compound 0.0625 µg/mL, partner 0.25 µg/mL | 0.792
[2], first compound 0.0625 µg/mL, partner 0.5 µg/mL | 0.707
[2], first compound 0.125 µg/mL, partner 0.125 µg/mL | 0.906
[2], first compound 0.125 µg/mL, partner 0.25 µg/mL | 0.788
[2], first compound 0.125 µg/mL, partner 0.5 µg/mL | 0.736
[2], first compound 0.25 µg/mL, partner 0.125 µg/mL | 0.851
[2], first compound 0.25 µg/mL, partner 0.25 µg/mL | 0.725
[2], first compound 0.25 µg/mL, partner 0.5 µg/mL | 0.753
[3], first compound 0.0008 µg/mL, partner 0.007 µg/mL | 0.977
[3], first compound 0.0008 µg/mL, partner 0.014 µg/mL | 0.982
[3], first compound 0.0008 µg/mL, partner 0.028 µg/mL | 0.849
[3], first compound 0.0015 µg/mL, partner 0.007 µg/mL | 0.989
[3], first compound 0.0015 µg/mL, partner 0.0078 µg/mL | ≥ 1
[3], first compound 0.0015 µg/mL, partner 0.014 µg/mL | 0.959
[3], first compound 0.0015 µg/mL, partner 0.0155 µg/mL | ≥ 1
[3], first compound 0.0015 µg/mL, partner 0.028 µg/mL | 0.82
[3], first compound 0.0015 µg/mL, partner 0.031 µg/mL | 0.792
[3], first compound 0.003 µg/mL, partner 0.007 µg/mL | 0.943
[3], first compound 0.003 µg/mL, partner 0.0078 µg/mL | ≥ 1
[3], first compound 0.003 µg/mL, partner 0.014 µg/mL | 0.942
[3], first compound 0.003 µg/mL, partner 0.0155 µg/mL | 0.907
[3], first compound 0.003 µg/mL, partner 0.028 µg/mL | 0.813
[3], first compound 0.003 µg/mL, partner 0.031 µg/mL | 0.499

fitness, [3], one replicate
Conditions | partner 0.0078 µg/mL | partner 0.0155 µg/mL | partner 0.031 µg/mL
first compound 0.0008 µg/mL | ≥ 1 | ≥ 1 | 0.811
first compound 0.006 µg/mL | 0.484 | 0.384 | 0.103

Conditions | Bliss interaction score
[4] | 0.0811
[5] | 0.0643
[6] | -0.0522
[7] | -0.0542

CC1(C)S[C@@H]2[C@H](NC(=O)[C@H](N)c3ccc(O)cc3)C(=O)N2[C@H]1C(=O)O [Amoxicillin] + COc1c(N2C[C@@H]3CCCN[C@@H]3C2)c(F)cc2c(=O)c(C(=O)O)cn(C3CC3)c12 [Moxifloxacin]
Conditions | fitness
[1], first compound 0.0625 µg/mL, partner 0.0075 µg/mL | 0.51
[1], first compound 0.0625 µg/mL, partner 0.015 µg/mL | 0.482
[1], first compound 0.0625 µg/mL, partner 0.03 µg/mL | 0.403
[1], first compound 0.125 µg/mL, partner 0.0075 µg/mL | 0.382
[1], first compound 0.125 µg/mL, partner 0.015 µg/mL | 0.374
[1], first compound 0.125 µg/mL, partner 0.03 µg/mL | 0.203
[1], first compound 0.25 µg/mL, partner 0.0075 µg/mL | 0.152
[1], first compound 0.25 µg/mL, partner 0.015 µg/mL | 0.119
[1], first compound 0.25 µg/mL, partner 0.03 µg/mL | 0.034
[1], first compound 0.5 µg/mL, partner 0.0075 µg/mL | 0.0102
[1], first compound 0.5 µg/mL, partner 0.015 µg/mL | 0.0002
[1], first compound 0.5 µg/mL, partner 0.03 µg/mL | 0.0026
[2], first compound 0.0625 µg/mL, partner 0.0075 µg/mL | 0.715
[2], first compound 0.0625 µg/mL, partner 0.015 µg/mL | 0.609
[2], first compound 0.125 µg/mL, partner 0.0075 µg/mL | 0.705
[3], first compound 0.0008 µg/mL, partner 0.005 µg/mL | 0.968
[3], first compound 0.0008 µg/mL, partner 0.01 µg/mL | 0.977
[3], first compound 0.0008 µg/mL, partner 0.02 µg/mL | 0.913
[3], first compound 0.0015 µg/mL, partner 0.005 µg/mL | 0.972
[3], first compound 0.0015 µg/mL, partner 0.01 µg/mL | 0.967
[3], first compound 0.0015 µg/mL, partner 0.02 µg/mL | 0.905
[3], first compound 0.0015 µg/mL, partner 0.0312 µg/mL | 0.314
[3], first compound 0.0015 µg/mL, partner 0.0625 µg/mL | 0.147
[3], first compound 0.0015 µg/mL, partner 0.125 µg/mL | 0.0837
[3], first compound 0.003 µg/mL, partner 0.005 µg/mL | 0.92
[3], first compound 0.003 µg/mL, partner 0.01 µg/mL | 0.92
[3], first compound 0.003 µg/mL, partner 0.02 µg/mL | 0.901
[3], first compound 0.003 µg/mL, partner 0.0312 µg/mL | 0.277
[3], first compound 0.003 µg/mL, partner 0.0625 µg/mL | 0.211
[3], first compound 0.003 µg/mL, partner 0.125 µg/mL | 0.0689

one replicate
Conditions | fitness
[1], first compound 0.125 µg/mL, partner 0.06 µg/mL | 0.388
[1], first compound 0.125 µg/mL, partner 0.12 µg/mL | 0.0813
[1], first compound 0.25 µg/mL, partner 0.06 µg/mL | 0.112
[1], first compound 0.25 µg/mL, partner 0.12 µg/mL | 0.0126
[1], first compound 0.5 µg/mL, partner 0.06 µg/mL | 0.0085
[1], first compound 0.5 µg/mL, partner 0.12 µg/mL | 0.0156
[3], first compound 0.0008 µg/mL, partner 0.0312 µg/mL | 0.209
[3], first compound 0.0008 µg/mL, partner 0.0625 µg/mL | 0.167
[3], first compound 0.0008 µg/mL, partner 0.125 µg/mL | 0.103
[3], first compound 0.006 µg/mL, partner 0.0312 µg/mL | 0.0891
[3], first compound 0.006 µg/mL, partner 0.0625 µg/mL | 0.0684
[3], first compound 0.006 µg/mL, partner 0.125 µg/mL | 0.0138

Conditions | Bliss interaction score
[4] | 0.0481
[5] | -0.0301
[6] | 0.046
[7] | 0.0639
